Test results published in US20170079267A1, “SEX PHEROMONE COMPOSITION OF PEACH FRUIT MOTH AND ATTRACTANT COMPRISING THE SAME” (SHIN-ETSU CHEMICAL CO., LTD., priority 2011, published 2017).

Test system: antenna of a male adult of peach fruit moth
Experiment: GC-EAD (electroantennographic detection) of the extract of peach fruit moth
Parameters: species or system Carposina sasakii
Details: GC-EAD of pheromone gland extract; male adult 3 to 5 days after eclosion
Description: An EAD chart of the extract of peach fruit moth (Carposina sasakii) is shown in FIG. 1A and a GC chart of the extract is shown in FIG. 1B. […] In FIG. 1B, the peaks for components (5) and (6) were at the detection limit or less so that they were not detected.
In this time zone, the pheromone gland was excised from a virgin female adult (2 to 3 days old) under a microscope and immersed in n-hexane for 30 minutes. Then the insect body tissues were removed from the extraction liquid by filtration to produce an extract of peach fruit moth.
A GC-EAD (Gas Chromatography-Electroantennographic Detection) chart of the above extract of peach fruit moth is shown in FIG. 1.
Structural analyses of dimethyl disulfide (DMDS) adducts was conducted for each of the unsaturated bond sites of the monoene components. Finally, it was found in comparison with the retention times and mass spectra of the corresponding synthesized products that the components (1) to (6) were docosane, tricosane, (Z)-7-tricosene, (Z)-5-pentacosene, (Z)-12-nonadecen-9-one and (Z)-7-heneicosen-11-one, respectively, and the mixing weight ratio thereof was 6:341:432:36:2:8 with respect to 100 of (Z)-13-eicosen-10-one. FIGS. 2 to 7 show the mass spectra of the components (1) to (6) in the extract of peach fruit moth, while FIGS. 8 to 13 show the mass spectra of the commercial products and synthesized compounds.

SMILES: CCCCCC/C=C\CCC(=O)CCCCCCCCC [(Z)-13-eicosen-10-one]
- potential response of the antenna of a male adult (EAD): showed a potential response
